In one experiment the target is T1, EGFR (Homo sapiens, UniProt P00533).
T1 construct: made in house; host or cells: baculovirus expression system
Description: EGFR substrate phosphorylation assay (HTRF). In kind it is biochemical. As to conditions: Method (A): Enzyme Mix incubated with compound at 20° C. for 1 hr, reaction started by adding Substrate Mix. A digest of the protocol:
(§1)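 Baculovirus-expressed kinase (0.8 nM EGFR or 10 nM ErbB2 in enzyme mix) with Peptide C 0.8 μM and ATP 20 μM (substrate-mix levels), MOPS pH 7.5, MnCl2; 90 min, 20 °C, HTRF anti-phosphotyrosine. Method A adds 1 h enzyme–compound preincubation; B none. pIC50, final compound 0.00027–47.6 μM.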

The next experiment has as its target T2, ErbB2 (Homo sapiens, UniProt P04626).
T2 construct: made in house; host or cells: baculovirus expression system
Description: ErbB-2 substrate phosphorylation assay (HTRF). In kind it is biochemical. To be noted: Method (A): Enzyme Mix incubated with compound at 20° C. for 1 hr, reaction started by adding Substrate Mix. The procedure, abridged: as §1

The target in the next experiment is B-Raf (Homo sapiens, UniProt P15056). Description: B-Raf Accelerated MEK ATPase assay (BRAMA). To be noted: Method (A): BRAMA, kinetic read. In kind it is biochemical. On the procedure: Compounds of the present invention were tested for B-Raf protein serine kinase inhibitory activity in a B-Raf Accelerated MEK ATPase assay (BRAMA). The BRAMA assay is a high sensitivity assay which measures an intrinsic MEK-mediated ATP hydrolysis uncoupled from downstream ERK phosphorylation by coupling the formation of ADP to NADH oxidation through the enzymes pyruvate kinase and lactate dehydrogenase. When ADP production is initiated by addition of catalytic amounts of an activated Raf enzyme and non-phosphorylated MEK, one observes robust ADP production concomitant with Raf-mediated phosphorylation of MEK.
Chain of B-Raf (P15056 whole entry): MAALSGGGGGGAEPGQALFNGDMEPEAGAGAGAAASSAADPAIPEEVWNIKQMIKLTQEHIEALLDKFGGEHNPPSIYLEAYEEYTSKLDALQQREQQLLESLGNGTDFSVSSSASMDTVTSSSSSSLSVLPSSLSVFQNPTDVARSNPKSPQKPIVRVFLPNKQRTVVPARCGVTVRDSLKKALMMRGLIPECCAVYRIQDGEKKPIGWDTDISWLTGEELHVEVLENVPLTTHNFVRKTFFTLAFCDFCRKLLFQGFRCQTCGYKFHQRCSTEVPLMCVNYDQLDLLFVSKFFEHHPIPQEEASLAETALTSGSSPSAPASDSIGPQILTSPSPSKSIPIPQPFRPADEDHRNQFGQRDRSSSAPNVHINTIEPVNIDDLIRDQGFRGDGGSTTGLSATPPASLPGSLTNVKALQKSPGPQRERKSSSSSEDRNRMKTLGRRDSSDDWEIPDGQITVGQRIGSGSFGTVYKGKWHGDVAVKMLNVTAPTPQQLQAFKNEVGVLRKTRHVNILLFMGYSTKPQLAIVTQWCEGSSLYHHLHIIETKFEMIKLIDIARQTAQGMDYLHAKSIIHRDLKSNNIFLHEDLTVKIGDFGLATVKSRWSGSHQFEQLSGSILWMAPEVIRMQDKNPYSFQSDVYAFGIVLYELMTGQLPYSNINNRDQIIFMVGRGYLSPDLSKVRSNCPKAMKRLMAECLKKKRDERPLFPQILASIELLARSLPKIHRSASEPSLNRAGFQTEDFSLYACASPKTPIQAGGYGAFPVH
Method A: Specific details of the assay are disclosed in: C. Rominger, M. Schaber, E. May. Assay for B-Raf Activity Based on Intrinsic MEK ATPase Activity. Statutory Invention Registration Ser. No. 11/084,993 (March, 2005). Method B: The method is the same as method A, but includes the following changes: 1) the assay was performed with a final MEK concentration of 150 nM and 2) the assay was read as single end point instead of a kinetic read.

Experiment [1] concerns HN5 tumor cells. Description: Method A: Methylene Blue Growth Inhibition Assay, HN5. The format is cell-based. As to conditions: Homo sapiens, 72 h, 3 days. On the procedure: (§2) Human breast (BT474) and head and neck (HN5) tumor cells were cultured in low glucose DMEM (Life Technologies 12320-032) containing 10% fetal bovine serum (FBS). Human colon tumor cells (Colo205) were cultured in DMEM (Invitrogen, 10564) containing 10% FBS. The SV40 transformed human mammary epithelial cell line HB4a was transfected with either human H-ras cDNA (HB4a r4.2) or the human c-ErbB2 cDNA (HB4a c5.2). The HB4a clones were cultured in RPMI containing 10% FBS, insulin (5 g/mL), hydrocortisone (5 g/mL), supplemented with the selection agent hygromycin B (50 g/mL). All lines were grown in a humidified incubator at 37° C. in 95% air, 5% CO2. Cells were harvested using trypsin/EDTA, counted using a haemocytometer, and plated in 100 μL of the appropriate media, at the following densities, in a 96-well tissue culture plate (Falcon 3075): BT474 10,000 cells/well, HN5 3,000 cells/well. The next day, compounds were diluted in DMEM containing […] gentamicin, at twice the final required concentration, from 10 mM stock solutions in DMSO. 100 μl/well of these dilutions were added to the 100 μL of media currently on the cell plates. Medium containing 0.6% DMSO was added to control wells. Compounds diluted in DMEM were added to all cell lines. The final concentration of DMSO in all wells was 0.3%. Cells were returned to the incubator (37° C., […]) for 3 days. Medium was then removed by aspiration. Cell biomass was estimated by staining cells with 90 μL/well methylene blue (Sigma M9140, 0.5% in 1:1 EtOH:H2O), and incubation at room temperature for at least 30 minutes. Stain was removed, and the plates rinsed by immersion in deionized H2O and air-dried. To release stain from the cells 100 μL of solubilization solution were added (1% N-lauroyl sarcosine, sodium salt, Sigma L5125, in PBS), and plates were shaken gently for about 30 minutes. Optical density at 620 nm was measured on a microplate reader. Percent inhibition of cell growth was calculated relative to vehicle-treated control wells. Concentration of compound that inhibits 50% of control cell growth (IC50) was interpolated using nonlinear regression (Levenberg-Marquardt) and the equation,
(§3) y=Vmax*(1−(x/(K+x)))+Y2, where “K” was equal to the IC50.

Experiment [2] deals with BT474 tumor cells. Description: Method A: Methylene Blue Growth Inhibition Assay, BT474. To be noted: Homo sapiens, BT-474, 72 h, 3 days. In kind it is cell-based. On the procedure: as §2, §3
The subject of experiment [3] is Colo205 tumor cells. Description: Method A: Methylene Blue Growth Inhibition Assay, Colo205. To be noted: Homo sapiens, COLO 205, 72 h, 3 days. The format is cell-based. On the procedure: as §2, §3
Experiment [4] concerns Colo205 tumor cells. Description: Method C: Cell Growth Inhibition Assay (CellTiter-Glo), Colo205. As to conditions: Homo sapiens, COLO 205, 72 h, 3 days, 4-parameter fit. The format is cell-based. A digest of the protocol: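 Growth inhibition is expressed as the concentration giving 50% inhibition relative to vehicle controls, derived from a 4-parameter fit. Tumor cells plated at 500 per well were exposed for 3 days to compound (0.2% DMSO) before total ATP was quantified by CellTiter-Glo.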

In another experiment the test system is SK-MEL-28 tumor cells. Description: Method C: Cell Growth Inhibition Assay (CellTiter-Glo), SK-MEL-28. In kind it is cell-based. To be noted: Homo sapiens, SK-MEL-28, 72 h, 3 days, 4-parameter fit. The procedure, abridged: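 Cells plated at 500 cells/well, dosed next day with 10-point 1:3 dilution series (0.2% final DMSO) and grown 3 days at 37 °C, 5% CO2. CellTiter-Glo luminescence (total ATP) served as cell-number surrogate; inhibition relative to DMSO controls, IC50 interpolated by 4-parameter fit.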

In experiment [5] the test system is HN5 tumor cells. Put plainly: Method B: CellTiter-Glo Growth Inhibition Assay, HN5. In kind it is cell-based. To be noted: Homo sapiens, 72 h, 3 days. On the procedure: (§4) Human breast tumor cells (BT474) were cultured in RPMI, (Invitrogen, 22400) containing 10% fetal bovine serum (FBS). Human head and neck tumor cells (HN5) were cultured in low glucose DMEM (Invitrogen, 12320) containing 10% FBS. Human colon tumor cells (Colo205) were cultured in DMEM (Invitrogen, 10564) containing 10% FBS. Human melanoma cancer cells (SK-MEL-28) were incubated in DMEM (Invitrogen). All cell lines were maintained at 37° C. in a humidified 5% CO2, 95% air incubator. Cells were harvested using trypsin/EDTA, counted using a haemocytometer, and plated in 30 μL of the appropriate media described above, at the following densities, in a half-area, black-walled, 96-well tissue culture plate (Corning 3882): BT474 3,000 cells/well, HN5 500 cells/well, Colo205 3,000 cells/well, and SK-MEL-28 500 cells/well). The next day, compounds were diluted in DMEM containing […] gentamicin, from 10 mM stock solutions in DMSO. 30 μL/well of these dilutions were added to the 30 μL/well of media currently on the cell plates. Medium containing 0.6% DMSO was added to control wells. The final concentration of DMSO in all wells was 0.3%. Cells were incubated at 37° C., 5% CO2 for 3 days. Cell biomass was estimated using CellTiter-Glo® reagent (Promega G7571). Briefly, plates were removed from the incubator and allowed to equilibrate to rt for 30 minutes. 25-60 μL of CellTiter-Glo® reagent were added to each well of the treated cells and plates were shaken on an orbital plate shaker for 2 mins. Plates were incubated without shaking for 30 more mins and read in a luminometer with an integration time of 0.5 seconds per well. Percent inhibition of cell growth was calculated relative to vehicle-treated control wells. Concentration of compound that inhibits 50% of vehicle control cell growth (IC50) was interpolated using nonlinear regression (Levenberg-Marquardt) and the equation, y=V max*(1−(x/(K+x)))+Y2, where “K” was equal to the IC50.

Experiment [6] relates to BT474 tumor cells. Description: Method B: CellTiter-Glo Growth Inhibition Assay, BT474. In kind it is cell-based. To be noted: Homo sapiens, BT-474, 72 h, 3 days. On the procedure: as §4
In experiment [7] the test system is Colo205 tumor cells. Description: Method B: CellTiter-Glo Growth Inhibition Assay, Colo205. In kind it is cell-based. As to conditions: Homo sapiens, COLO 205, 72 h, 3 days. On the procedure:
as §4

Molecules are shown by their SMILES.

T2 sequence (P04626 23-1255): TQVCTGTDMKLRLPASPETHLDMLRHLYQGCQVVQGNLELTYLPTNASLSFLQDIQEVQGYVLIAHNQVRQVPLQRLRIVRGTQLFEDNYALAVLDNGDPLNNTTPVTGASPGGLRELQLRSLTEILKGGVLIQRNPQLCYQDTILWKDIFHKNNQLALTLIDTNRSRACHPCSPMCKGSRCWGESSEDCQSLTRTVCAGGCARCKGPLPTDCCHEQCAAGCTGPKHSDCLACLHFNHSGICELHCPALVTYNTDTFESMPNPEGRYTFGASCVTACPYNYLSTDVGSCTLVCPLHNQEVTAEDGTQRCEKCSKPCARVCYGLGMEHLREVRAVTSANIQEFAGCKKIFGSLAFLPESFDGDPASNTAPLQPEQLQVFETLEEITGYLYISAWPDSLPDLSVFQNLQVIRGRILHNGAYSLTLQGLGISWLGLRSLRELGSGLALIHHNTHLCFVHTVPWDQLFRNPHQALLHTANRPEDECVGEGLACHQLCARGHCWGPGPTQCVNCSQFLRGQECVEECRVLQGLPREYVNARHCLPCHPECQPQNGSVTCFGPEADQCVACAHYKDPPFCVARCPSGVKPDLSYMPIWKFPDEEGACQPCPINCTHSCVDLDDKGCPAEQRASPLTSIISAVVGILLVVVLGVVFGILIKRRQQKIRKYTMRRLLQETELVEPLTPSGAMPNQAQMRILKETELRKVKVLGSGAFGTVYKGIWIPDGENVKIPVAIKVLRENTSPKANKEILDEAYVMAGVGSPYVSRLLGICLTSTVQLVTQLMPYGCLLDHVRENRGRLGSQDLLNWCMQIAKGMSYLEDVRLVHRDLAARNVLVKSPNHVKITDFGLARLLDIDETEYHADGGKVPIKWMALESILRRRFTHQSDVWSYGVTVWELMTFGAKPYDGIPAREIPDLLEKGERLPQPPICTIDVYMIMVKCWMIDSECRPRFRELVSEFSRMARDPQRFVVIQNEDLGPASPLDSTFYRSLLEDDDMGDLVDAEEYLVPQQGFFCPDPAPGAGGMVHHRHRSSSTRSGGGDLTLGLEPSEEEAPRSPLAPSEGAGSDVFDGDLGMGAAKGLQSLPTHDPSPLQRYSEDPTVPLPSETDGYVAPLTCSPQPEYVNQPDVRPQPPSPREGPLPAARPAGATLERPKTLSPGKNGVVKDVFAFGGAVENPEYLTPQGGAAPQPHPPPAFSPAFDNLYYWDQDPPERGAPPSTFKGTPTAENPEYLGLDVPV
T1 sequence (P00533 25-1210): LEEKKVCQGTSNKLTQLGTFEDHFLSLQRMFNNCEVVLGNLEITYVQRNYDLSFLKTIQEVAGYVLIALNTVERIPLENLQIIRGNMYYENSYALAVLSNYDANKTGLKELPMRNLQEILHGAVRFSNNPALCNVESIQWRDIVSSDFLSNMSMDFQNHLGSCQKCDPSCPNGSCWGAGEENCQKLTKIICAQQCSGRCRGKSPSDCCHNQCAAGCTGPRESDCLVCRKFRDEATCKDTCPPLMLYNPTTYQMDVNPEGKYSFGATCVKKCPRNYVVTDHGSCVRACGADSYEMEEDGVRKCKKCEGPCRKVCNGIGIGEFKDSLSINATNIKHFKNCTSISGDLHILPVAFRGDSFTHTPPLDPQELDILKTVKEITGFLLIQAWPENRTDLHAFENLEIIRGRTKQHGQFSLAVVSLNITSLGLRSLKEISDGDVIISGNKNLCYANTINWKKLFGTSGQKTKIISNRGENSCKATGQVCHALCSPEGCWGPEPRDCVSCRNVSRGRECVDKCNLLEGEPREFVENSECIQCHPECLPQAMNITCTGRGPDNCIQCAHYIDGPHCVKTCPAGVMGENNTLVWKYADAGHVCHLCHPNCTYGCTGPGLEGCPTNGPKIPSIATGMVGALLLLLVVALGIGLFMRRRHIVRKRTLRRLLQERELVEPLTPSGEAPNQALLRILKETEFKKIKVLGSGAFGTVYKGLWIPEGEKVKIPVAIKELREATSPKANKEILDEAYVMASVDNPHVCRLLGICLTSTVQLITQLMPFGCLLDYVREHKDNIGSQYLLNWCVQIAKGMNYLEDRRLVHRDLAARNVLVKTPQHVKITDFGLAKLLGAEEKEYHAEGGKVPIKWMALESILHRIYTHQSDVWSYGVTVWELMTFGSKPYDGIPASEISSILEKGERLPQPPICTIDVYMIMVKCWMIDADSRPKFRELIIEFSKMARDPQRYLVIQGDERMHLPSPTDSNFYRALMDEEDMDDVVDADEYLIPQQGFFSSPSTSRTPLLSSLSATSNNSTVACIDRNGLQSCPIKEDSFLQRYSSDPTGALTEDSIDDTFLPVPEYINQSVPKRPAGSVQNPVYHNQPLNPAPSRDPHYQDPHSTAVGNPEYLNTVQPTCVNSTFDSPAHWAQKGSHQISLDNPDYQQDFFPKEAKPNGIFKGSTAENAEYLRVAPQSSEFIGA

In the case of `COCCOc1ccc(Nc2nccc(-c3sc(N)nc3-c3cccc(NC(=O)c4cccn4C)c3)n2)cc1F` [Example 66, N-[3-(2-Amino-5-{2-[(3-fluoro-4-{[2-(methyloxy)ethyl]oxy}phenyl)amino]-4-pyrimidinyl}-1,3-thiazol-4-yl)phenyl]-1-methyl-1H-pyrrole-2-carboxamide], the IC50 on EGFR was less than 100 nM; at ErbB2 it was less than 100 nM; on B-Raf, more than 1000 nM; with HN5 tumor cells [1], less than 100 nM; with BT474 tumor cells [2] it was less than 100 nM; in the experiment with Colo205 tumor cells [3] it was 100 to 1000 nM.

As to `Cc1cc(Nc2nccc(-c3sc(N(C)C)nc3-c3cccc(NC(=O)c4c(F)cccc4F)c3)n2)ccc1CC1CCNCC1` [Example 42, N-{3-[2-(Dimethylamino)-5-(2-{[3-methyl-4-(4-piperidinylmethyl)phenyl]amino}-4-pyrimidinyl)-1,3-thiazol-4-yl]phenyl}-2,6-difluorobenzamide], the IC50 on EGFR was less than 100 nM; on ErbB2, less than 100 nM; against B-Raf, 100 to 1000 nM; in the experiment on Colo205 tumor cells [4] it was more than 1000 nM; with SK-MEL-28 tumor cells, more than 1000 nM.

Regarding `Cc1cc(-c2sc(N)nc2-c2cccc(NC(=O)c3c(F)cccc3F)c2)nc(Nc2cccc(OCCN(C)C)c2)n1` [Example 49, N-[3-(2-Amino-5-{2-[(3-{[2-(dimethylamino)ethyl]oxy}phenyl)amino]-6-methyl-4-pyrimidinyl}-1,3-thiazol-4-yl)phenyl]-2,6-difluorobenzamide], the IC50 at EGFR was less than 100 nM; on ErbB2 it was 100 to 1000 nM; at B-Raf, more than 1000 nM; with HN5 tumor cells [5] it was 100 to 1000 nM; with BT474 tumor cells [6] it was 100 to 1000 nM; in the experiment with Colo205 tumor cells [7] it was more than 1000 nM.

As for `CN(C)CCCNc1ccc(Nc2nccc(-c3sc(N)nc3-c3cccc(NC(=O)c4cccn4C)c3)n2)cc1F` [Example 65, N-[3-(2-Amino-5-{2-[(4-{[3-(dimethylamino)propyl]amino}-3-fluorophenyl)amino]-4-pyrimidinyl}-1,3-thiazol-4-yl)phenyl]-1-methyl-1H-pyrrole-2-carboxamide], the 50% inhibitory concentration (IC50) at EGFR is less than 100 nM; at ErbB2 it was less than 100 nM; with HN5 tumor cells [1], less than 100 nM; with BT474 tumor cells [2], less than 100 nM; in the experiment on Colo205 tumor cells [3], 100 to 1000 nM.

As to `Nc1nc(-c2cccc(OCc3ccccc3)c2)c(-c2ccnc(Nc3cccc(-c4cnco4)c3)n2)s1` [Example 69, 4-(2-Amino-4-{3-[(phenylmethyl)oxy]phenyl}-1,3-thiazol-5-yl)-N-[3-(1,3-oxazol-5-yl)phenyl]-2-pyrimidinamine], the IC50 was less than 100 nM at EGFR; less than 100 nM on ErbB2; more than 1000 nM against B-Raf; 100 to 1000 nM in the experiment on HN5 tumor cells [1]; 100 to 1000 nM with BT474 tumor cells [2]; more than 1000 nM in the experiment with Colo205 tumor cells [3].

One may read the IC50 as the midpoint of a concentration-inhibition curve.

The values are drawn from patent US20110098296A1, “Thiazole And Oxazole Kinase Inhibitors” (priority 2007, published 2011).
